Test results from patent publication US7659293B2, “α-Amino-N-hydroxy-acetamide derivatives” (Novartis AG, priority 2001, dated 2010).

Test system: BN472 rat mammary carcinoma
Assay: Spontaneous metastases model, BN472 rat mammary tumors transplanted orthotopically
Format: in vivo
Conditions: 4 weeks, vehicle control about 230
Description: Tumor fragments of ca. 25 mm^3 are transplanted under the mammary fat pad of female Brown-Norwegian (BN) rats. A compound of formula I is suspended in 1% carboxymethyl cellulose (CMC) in sterile water. The formulations are administered orally at doses of either 30 mg/kg once per day or 15 mg/kg twice per day. Animals in the tumor-bearing control group and the non-tumor-bearing control group (healthy rats) receive vehicle only. Treatment starts after randomization and continues for 4 weeks. Lung metastases are determined after four weeks of treatment by counting the number of lesions visible on the surface of the lungs after fixation in Bouin's fixative. In this model the compounds of formula I at a dose of either 30 mg/kg once per day or 15 mg/kg twice per day produce reductions in the incidence and/or extent of metastases in lungs and regional lymph nodes. The reduction in the median number of lung metastases or weight of regional lymph nodes is between approximately 25% and 70%. For Example, for the compound of Example 3 the median number of lung foci is about 105 for both dosages compared to a median number of about 230 lung foci in the vehicle control group. Based on the increase in body weight and general health, the compounds appear to be well tolerated. […]

O=C(CN(Cc1ccc(-n2nccn2)cc1)S(=O)(=O)c1ccc(OCC2CC2)cc1)NO [Example 3, [(4-Cyclopropylmethoxy-benzenesulfonyl)-(4-[1,2,3]triazol-2-yl-benzyl)amino]-N-hydroxy-acetamide]
median number of lung foci (15 mg/kg twice per day orally): about 105
median number of lung foci (30 mg/kg once per day orally): about 105
